This is an account of results in ChEMBL document CHEMBL1131475, “Discovery of ritonavir, a potent inhibitor of HIV protease with high oral bioavailability and clinical efficacy” (J Med Chem, 1998).

Data set [1] is described as follows: Oral bioavailability in rat. The note with it: in vivo. It is filed as ADME, organism-based.
Data set [2] can be described thus: in vivo. The note with it: rat, plasma, po.
Data set [3] can be described thus: in vivo. The note with it: rat, plasma, po, 10 mg/kg.
Data set [4] is described as follows: in vivo. To be noted: rat, plasma, po. The source holds these as a separate data set.
Data set [5] can be described thus: in vivo. To be noted: rat, plasma, iv.

One may read the bioavailability as dose-corrected exposure relative to a reference, in per cent. The low end stands for little systemic uptake, the high end for much systemic uptake. What is called AUC is concentration integrated over time. Low readings indicate low exposure, high ones high exposure. The term Cmax denotes the peak of the concentration-time curve. One may read the Tmax as the time from dosing to the highest level. The half-life is the time in which the quantity being followed falls by half. With `CC(C)c1nc(COC(=O)NC(C(=O)N[C@@H](Cc2ccccc2)C[C@H](O)[C@H](Cc2ccccc2)NC(=O)OCc2cccnc2)C(C)C)co1` (stereo not given in full), in data set [1], the bioavailability was determined as 5%. Moreover, the AUC in data set [2] turned out to be 200 ng·h/mL. Also, in data set [3], the Cmax was 460 nM. Besides, the Tmax in data set [4] stood at 12 min. For the same compound, the half-life in data set [5] is 19.8 min.
`Cc1cccc(CN(C)C(=O)NC(C(=O)N[C@@H](Cc2ccccc2)[C@@H](O)C[C@H](Cc2ccccc2)NC(=O)OCc2cccnc2)C(C)C)n1` (stereo not given in full) returned a bioavailability in data set [1] of 16%. This compound also came in with an AUC in data set [2] of 950 ng·h/mL. In addition, the Cmax in data set [3] is 2420 nM. The Tmax in data set [4] is 15 min. In data set [5], this compound gave a half-life of 13.2 min.
As to `COCc1nc(COC(=O)NC(C(=O)N[C@@H](Cc2ccccc2)[C@@H](O)C[C@H](Cc2ccccc2)NC(=O)OCc2cccnc2)C(C)C)cs1` (stereo not given in full), the bioavailability in data set [1] was found to be 10%. For the same compound, in data set [2], the AUC came out at 630 ng·h/mL. The compound also came in with a Cmax in data set [3] of 1790 nM. The Tmax in data set [4] stood at 13.8 min. Also, the half-life in data set [5] is 16.2 min.
`CC(C)C(NC(=O)N(C)Cc1csc(C(C)(C)C)n1)C(=O)N[C@@H](Cc1ccccc1)[C@@H](O)C[C@H](Cc1ccccc1)NC(=O)OCc1cccnc1` (stereo not given in full) gave a bioavailability in data set [1] of 9.3%. Besides, in data set [2], the AUC is 510 ng·h/mL. The same compound showed a Cmax in data set [3] of 830 nM. In addition, the Tmax in data set [4] stood at 19.8 min. This compound had a half-life in data set [5] of 21.6 min.
The compound `CC(C)C(NC(=O)N(C)Cc1csc(C2CCC2)n1)C(=O)N[C@@H](Cc1ccccc1)C[C@H](O)[C@H](Cc1ccccc1)NC(=O)OCc1cncs1` (stereo not given in full) showed a bioavailability in data set [1] of 60%. This compound also gave an AUC in data set [2] of 6290 ng·h/mL. The compound further displayed a Cmax in data set [3] of 2480 nM. Besides, the Tmax in data set [4] is 72 min. Besides, the half-life in data set [5] is 24 min.
In data set [1], `CC(C)c1ncc(COC(=O)NC(C(=O)N[C@@H](Cc2ccccc2)[C@@H](O)C[C@H](Cc2ccccc2)NC(=O)OCc2cccnc2)C(C)C)s1` (stereo not given in full) gave a bioavailability of 0.8%. The compound further registered an AUC in data set [2] of 30 ng·h/mL. In addition, in data set [3], the peak concentration (Cmax) was 100 nM. Moreover, the Tmax in data set [4] turned out to be 12 min. For the same compound, the half-life in data set [5] was 37.2 min.
On the same counts, the results for `CC(C)c1nc(CN(C)C(=O)NC(C(=O)N[C@@H](Cc2ccccc2)C[C@H](O)[C@H](Cc2ccccc2)NC(=O)OCc2cnco2)C(C)C)co1` (stereo not given in full) are 35%, 1850 ng·h/mL, 2050 nM, 9 min and 15.6 min.
As to `COc1ccc(CN(C)C(=O)NC(C(=O)N[C@@H](Cc2ccccc2)[C@@H](O)C[C@H](Cc2ccccc2)NC(=O)OCc2cccnc2)C(C)C)cn1` (stereo not given in full), in data set [1], the bioavailability was 7.9%. For the same compound, in data set [2], the AUC worked out at 310 ng·h/mL. This compound showed a Cmax in data set [3] of 1830 nM. Besides, the Tmax in data set [4] came out at 6 min. Besides, the half-life in data set [5] was 19.2 min.
In data set [1], `COc1ccc(COC(=O)NC(C(=O)N[C@@H](Cc2ccccc2)[C@@H](O)C[C@H](Cc2ccccc2)NC(=O)OCc2cccnc2)C(C)C)cn1` (stereo not given in full) came in with a bioavailability of 3.3%. The same compound returned an AUC in data set [2] of 160 ng·h/mL. For the same compound, the highest level in data set [3] (Cmax) was 560 nM. Further, the Tmax in data set [4] was found to be 9 min. For the same compound, the half-life in data set [5] is 25.8 min.
The corresponding values for `CC(C)C(NC(=O)OCc1cncc(N)c1)C(=O)N[C@@H](Cc1ccccc1)[C@@H](O)C[C@H](Cc1ccccc1)NC(=O)OCc1cccnc1` (stereo not given in full) are 0.5%, 20 ng·h/mL, 200 nM, 6 min and 43.2 min.
The compound `Cc1cncc(COC(=O)NC(C(=O)N[C@@H](Cc2ccccc2)[C@@H](O)C[C@H](Cc2ccccc2)NC(=O)OCc2cccnc2)C(C)C)c1` (stereo not given in full) came in with a bioavailability in data set [1] of 5.9%. In data set [2], this compound gave an AUC of 210 ng·h/mL. In data set [3], the concentration peaked (Cmax) at 480 nM. For the same compound, the Tmax in data set [4] was determined as 18 min. This compound also had a half-life in data set [5] of 16.8 min.
Consider `Cc1cccc(COC(=O)NC(C(=O)N[C@@H](Cc2ccccc2)[C@@H](O)C[C@H](Cc2ccccc2)NC(=O)OCc2cccnc2)C(C)C)n1` (stereo not given in full), for which the bioavailability in data set [1] is 7.5%. The compound also gave an AUC in data set [2] of 610 ng·h/mL. Moreover, the concentration in data set [3] peaked (Cmax) at 1150 nM. For the same compound, the Tmax in data set [4] came to 19.8 min. In data set [5], the half-life is 44.4 min.
The corresponding values for `Cc1cccc(COC(=O)NC(C(=O)N[C@@H](Cc2ccccc2)C[C@H](O)[C@H](Cc2ccccc2)NC(=O)OCc2cccnc2)C(C)C)n1` (stereo not given in full) are 16%, 900 ng·h/mL, 1740 nM, 6 min and 117 min.
On the same counts, the results for `CC(NC(=O)N(C)Cc1coc(C(C)C)n1)C(=O)N[C@@H](Cc1ccccc1)C[C@H](O)[C@H](Cc1ccccc1)NC(=O)OCc1cncs1` (stereo not given in full) are 23%, 2860 ng·h/mL, 3600 nM, 15 min and 240 min.
`Cc1ccc(COC(=O)NC(C(=O)N[C@@H](Cc2ccccc2)[C@@H](O)C[C@H](Cc2ccccc2)NC(=O)OCc2cccnc2)C(C)C)cn1` (stereo not given in full) had a bioavailability in data set [1] of 6.3%. This compound also displayed an AUC in data set [2] of 240 ng·h/mL. Further, in data set [3], the highest level (Cmax) was 450 nM. For the same compound, the Tmax in data set [4] stood at 6 min. For the same compound, in data set [5], the half-life was 34.2 min.
As to `COc1cncc(COC(=O)NC(C(=O)N[C@@H](Cc2ccccc2)C[C@H](O)[C@H](Cc2ccccc2)NC(=O)OCc2cccnc2)C(C)C)c1` (stereo not given in full), the bioavailability in data set [1] is 0.9%. Moreover, the AUC in data set [2] was 30 ng·h/mL. Besides, the peak level in data set [3] (Cmax) was 200 nM. For the same compound, the Tmax in data set [4] was found to be 6 min. In data set [5], this compound had a half-life of 48 min.
With `CCc1nc(CN(C)C(=O)NC(C(=O)N[C@@H](Cc2ccccc2)C[C@H](O)[C@H](Cc2ccccc2)NC(=O)OCc2cncs2)C(C)C)cs1` (stereo not given in full), in data set [1], the bioavailability stood at 70%. Further, the exposure (AUC) in data set [2] came out at 14200 ng·h/mL. In data set [3], this compound came in with a Cmax of 6170 nM. The Tmax in data set [4] amounted to 72 min. In addition, the half-life in data set [5] was 48 min.
The corresponding values for `CC(C)c1nc(CN(C)C(=O)NC(C(=O)N[C@@H](Cc2ccccc2)C[C@H](O)[C@H](Cc2ccccc2)NC(=O)OCc2cnco2)C(C)C)cs1` (stereo not given in full) are 23%, 2650 ng·h/mL, 1590 nM, 34.8 min and 33.6 min.
In turn, `CC(NC(=O)N(C)Cc1csc(C(C)C)n1)C(=O)N[C@@H](Cc1ccccc1)C[C@H](O)[C@H](Cc1ccccc1)NC(=O)OCc1cncs1` (stereo not given in full) displayed a bioavailability in data set [1] of 31%. The compound also registered an AUC in data set [2] of 1600 ng·h/mL. The concentration in data set [3] peaked (Cmax) at 1680 nM. Further, the Tmax in data set [4] turned out to be 30 min. The same compound showed a half-life in data set [5] of 54 min.
Consider `Cc1ncsc1CCOC(=O)NC(C(=O)N[C@@H](Cc1ccccc1)[C@@H](O)C[C@H](Cc1ccccc1)NC(=O)OCc1cccnc1)C(C)C` (stereo not given in full), for which the bioavailability in data set [1] is 9.2%. For the same compound, in data set [2], the AUC is 360 ng·h/mL. In addition, the peak level in data set [3] (Cmax) was 410 nM. Also, the Tmax in data set [4] was found to be 27 min. In addition, in data set [5], the half-life was 27 min.
`CC(C)c1nc(CN(C)C(=O)NC(C(=O)N[C@@H](Cc2ccccc2)[C@@H](O)C[C@H](Cc2ccccc2)NC(=O)OCc2cccnc2)C(C)C)cs1` (stereo not given in full) registered a bioavailability in data set [1] of 24%. This compound also gave an AUC in data set [2] of 950 ng·h/mL. In data set [3], this compound displayed a Cmax of 1650 nM. The Tmax in data set [4] turned out to be 15 min. In data set [5], the half-life is 45 min.
On the same counts, the results for `CCc1cccc(CN(C)C(=O)NC(C(=O)N[C@@H](Cc2ccccc2)[C@@H](O)C[C@H](Cc2ccccc2)NC(=O)OCc2cccnc2)C(C)C)n1` (stereo not given in full) are 23%, 730 ng·h/mL, 1530 nM, 9 min and 31.2 min.
As for `CC(C)C(NC(=O)OCc1ccccn1)C(=O)N[C@@H](Cc1ccccc1)[C@@H](O)C[C@H](Cc1ccccc1)NC(=O)OCc1cccnc1` (stereo not given in full), the bioavailability in data set [1] was found to be 26%. Further, in data set [2], the AUC stood at 1980 ng·h/mL. The Cmax in data set [3] is 4110 nM. The Tmax in data set [4] was 15 min. In addition, the half-life in data set [5] was 114 min.
The corresponding values for `CC(C)c1nc(CN(C)C(=O)NC(C(=O)N[C@@H](Cc2ccccc2)C[C@H](O)[C@H](Cc2ccccc2)NC(=O)OCc2ccno2)C(C)C)cs1` (stereo not given in full) are 7.7%, 270 ng·h/mL, 370 nM, 12 min and 35.4 min.
The corresponding values for `Cc1ccc(CN(C)C(=O)NC(C(=O)N[C@@H](Cc2ccccc2)C[C@H](O)[C@H](Cc2ccccc2)NC(=O)OCc2cccnc2)C(C)C)cn1` (stereo not given in full) are 2.1%, 60 ng·h/mL, 310 nM, 12 min and 21 min.
`Cc1nc(CN(C)C(=O)NC(C(=O)N[C@@H](Cc2ccccc2)C[C@H](O)[C@H](Cc2ccccc2)NC(=O)OCc2cccnc2)C(C)C)cs1` (stereo not given in full): the bioavailability in data set [1] worked out at 26%. In addition, in data set [2], the AUC was determined as 1060 ng·h/mL. Also, the peak level in data set [3] (Cmax) was 2100 nM. Further, in data set [4], the Tmax turned out to be 9 min. Besides, in data set [5], the half-life is 43.2 min.
Take `CCc1nc(CN(C)C(=O)NC(C(=O)N[C@@H](Cc2ccccc2)C[C@H](O)[C@H](Cc2ccccc2)NC(=O)OCc2cncs2)C(C)C)co1` (stereo not given in full): the bioavailability in data set [1] turned out to be 57%. This compound also registered an AUC in data set [2] of 8910 ng·h/mL. In data set [3], this compound displayed a Cmax of 8010 nM. In data set [4], the Tmax was 19.8 min. This compound showed a half-life in data set [5] of 120 min.
`CCc1nc(CN(C)C(=O)NC(C(=O)N[C@@H](Cc2ccccc2)[C@@H](O)C[C@H](Cc2ccccc2)NC(=O)OCc2cccnc2)C(C)C)cs1` (stereo not given in full) registered a bioavailability in data set [1] of 20%. Moreover, in data set [2], the AUC worked out at 870 ng·h/mL. Moreover, the Cmax in data set [3] is 1460 nM. Further, the Tmax in data set [4] is 12 min. In data set [5], this compound had a half-life of 44.4 min.
Compound `Cc1nc(CN(C)C(=O)NC(C(=O)N[C@@H](Cc2ccccc2)[C@@H](O)C[C@H](Cc2ccccc2)NC(=O)OCc2cccnc2)C(C)C)cs1` (stereo not given in full) came in with a bioavailability in data set [1] of 15%. For the same compound, the AUC in data set [2] stood at 1080 ng·h/mL. The compound further showed a maximum concentration (Cmax) in data set [3] of 2010 nM. The Tmax in data set [4] came out at 15 min. This compound also had a half-life in data set [5] of 89.4 min.
Regarding `COc1cncc(CN(C)C(=O)NC(C(=O)N[C@@H](Cc2ccccc2)[C@@H](O)C[C@H](Cc2ccccc2)NC(=O)OCc2cccnc2)C(C)C)c1` (stereo not given in full), the bioavailability in data set [1] stood at 0.8%. This compound showed an AUC in data set [2] of 50 ng·h/mL. In data set [3], this compound showed a Cmax of 440 nM. The Tmax in data set [4] came to 6 min. The compound also gave a half-life in data set [5] of 10.2 min.
